Assay results from a melting point compilation (Tetko et al.; mined from patent text by program, amines drawn as free bases though some values may be those of a salt).

SMILES	melting point [°C]
CC1=NCCSC1=NOC(=O)N(C)C	64 to 65
NC(=O)c1c(F)ccc(OCC(=O)O)c1F	152 to 153
CNc1nc(C(F)(F)F)cc(=O)n1-c1c(Cl)cc(C(F)(F)F)cc1Cl	211 to 214
CC(=O)C1CCC2C3CCC4CC(O)CCC4(C)C3C(O)CC12C (configuration not stated)	152 to 154
Nc1ccc(C(=O)c2ccc(N)cc2)cc1	241
Cc1ccc(-c2nc(N)ncc2-c2ccc(=O)[nH]n2)cc1	249
CCCCCCCCC#Cc1ccc2nc(C=O)ccc2c1	46.5 to 47.5
NC(=O)c1cc(-c2ccncc2)nnc1Cl	> 300
C=C(C)Cc1c(C)c2c(c(C)c1O)CC(C)(C)N2C=O	166 to 168
COC(=O)Nc1ccc(Br)cc1I	129 to 130
COc1cc2nc3ccc(F)cc3sc-2cc1=O	252
CC(C)N(C(=O)C(Cc1ccc(C#N)cc1)NC(=O)OC(C)(C)C)C(C)C (configuration not stated)	172
COC(=O)C1CN(C)CCC1c1ccc(F)cc1 (configuration not stated)	88 to 89
Cc1cc(O)n2nc(CC(=O)O)nc2n1	266 to 270
Cc1cc(Oc2ncc(C(F)(F)F)cc2Cl)nn1C(N)=O	101 to 104
O=P(O)(O)Cc1cc(C(F)(F)F)cc(C(F)(F)F)c1	206 to 208
CN1C(=O)C(NC(=O)NC2CCCCC2)N=C(c2ccccc2)c2ccccc21 (configuration not stated)	287 to 288
CCCc1nc2c(N)nc3cc(C)ccc3c2s1	186 to 187
CC12CCC3c4ccc(O)cc4C(CC(=O)O)CC3C1CC(O)C2O (configuration not stated)	259 to 262
CSC(SC)C1(O)O[C@H](COCc2ccccc2)[C@@H](OCc2ccccc2)[C@H](OCc2ccccc2)[C@H]1OCc1ccccc1 (some centres not stated)	96 to 97
COc1ccc2ncc(CO)c(O)c2c1	327 to 334
COc1ccc(C(=O)c2cccc3c2CCC3C#N)cc1 (configuration not stated)	109 to 112
O=[N+]([O-])c1ccc2sc(NCCCO)nc2c1	140 to 144
CNC(=S)NCCN1CCC(Nc2nc3cncnc3n2Cc2ccc(F)cc2)CC1	206

SMILES	melting point [°C]
FC(F)(F)c1cc(C#CCBr)cc(C(F)(F)F)c1	30 to 31
CSC1Oc2ccccc2C1=O (configuration not stated)	81 to 82
CCCC1CC(=O)c2c(NC(=O)C(=O)OCC)ccc(C)c21 (configuration not stated)	84 to 86
COC(=O)c1ccc(OC)cc1OC(=S)N(C)C	117 to 120
CC(C)C1(C)N=C(c2ncc(C3OCC(C)(C)CO3)cc2C(=O)O)NC1=O (configuration not stated)	163 to 170
CNS(=O)(=O)c1ccc(NC=C2C(=O)Nc3ccc4ncsc4c32)cc1CCOCCO	165
CSc1cc(Oc2cccc(C(F)(F)F)c2)nc(C(=O)NC(C)C)c1	66 to 69
O=CNc1nc(CSc2ccc([N+](=O)[O-])cc2)cs1	158 to 160
CCC1CCC2C3CCC4CC(O)CCC4(C)C3C(N(C)C)CC12C (configuration not stated)	147 to 150
Cc1cc(C)c2c(c1Br)CCC2=O	103
Cc1cc(OCc2coc(C=Cc3ccc(OC(F)(F)F)cc3)n2)ccc1COCCn1ccnn1	84 to 85
CCCCCCCCCCCCCCOc1ccc(CC(=O)OC)cc1F	38 to 40
c1csc(C2=NCC3COCCN3c3cc4c(cc32)OCCO4)c1 (configuration not stated)	192 to 194
CC(C)(C)C(CS(=O)(=O)c1ccc(Oc2ccc(OC(F)(F)F)cc2)cc1)N(O)C=O (configuration not stated)	160
COC(=O)c1nn(CCN(C)C)c2nc3cc(OC)ccc3cc12	127 to 128
COc1ccc(-n2cc(C#N)c(=O)[nH]c2=O)c(C)c1	276 to 278
Cc1ccc2[nH]c(=O)oc(=O)c2c1	257
CC12CCC(CC1=C=C1C=CC(Nc3nc(Cl)nc(Cl)n3)=CC1)C2(C)C (configuration not stated)	238
CCCCCCCCCCCCCCCCNc1ccc(C(=O)N(C)C)cc1	70 to 72
CCOC(=O)C1CNc2ccc([N+](=O)[O-])cc2O1 (configuration not stated)	130 to 132
CCC(=O)NC1COC2=CC3=C(OCCC3)C(=O)C21 (configuration not stated)	184
CC(=O)Nc1cc(C)c(N)c(C)c1[N+](=O)[O-]	197
Cc1ccc(C2C(=O)Oc3c2cc(C(C)(C)C)cc3C(C)(C)C)cc1C (configuration not stated)	130 to 132

The next lines start with the values.

melting point [°C]	SMILES
263 to 264	CC(=O)Nc1ccc(Nc2ncnc3[nH]cc(C(=O)c4ccccc4)c23)cc1
210 to 211	O=C(O)c1c(-c2ccc(F)c(Cl)c2)c2ccccc2n1Cc1cc2c(cc1Cl)OCO2
168 to 173	COC(=O)[C@H]1CC[C@H](NC(=O)c2cc(-c3ccc(C(=N)N)cc3)nn(Cc3ccccc3)c2=O)CC1
312 to 316	CC(C)c1ccc2nc3ccc(C(=O)O)cc3c(=O)n2c1
82 to 83	COc1ccc(-c2cc(C)c3occc3c2)cc1
164	C[C@@H]1CCCN1CCc1ccc2cc(-c3ccc(C#N)cc3)ccc2n1
168 to 169	CC(=O)N1c2c(ccn3cc(C)nc23)C(=O)C(OC(=O)C(C)(C)C)C1c1ccccc1 (configuration not stated)
249	CC(c1ccc(F)cc1)N1CCN(c2cc(Oc3cccc4c(=O)[nH]ccc34)ncn2)CC1 (configuration not stated)
> 250	CC(C)n1nc(-c2nc(-c3cn[nH]c3)c(N)nc2-c2ccccc2)ccc1=O
260 to 262	CC(C)C(NC(=O)CN1C=Cc2c([nH]c3c(C(=O)O)cccc23)C1)C(=O)C(F)(F)F (configuration not stated)
205 to 207	Oc1cccc(-c2ccc3c(-c4cccnc4)coc3c2)c1
125 to 126	OCc1cccc2cc(-c3ccccc3)sc12
141 to 143	Cc1nc(-c2ccccc2)cc(-c2ccc(C#N)o2)c1C(=O)NCCN1CCOCC1
245 to 247	CCc1nc2c(N)nc3ccccc3c2n1CC1(O)CCOC1 (configuration not stated)
190	CNC(=O)CC1=CC2(CCCC2)c2ccc(Cl)cc21
178 to 180	O=C(O)CCCCCOc1cc(-c2ccc(NC(=O)C(F)(F)F)cc2)cc(-c2ccccc2)n1
200 to 201	CC(=O)Nc1c(C(=O)c2ccccc2)[nH]c2ccc(Cl)cc12
217 to 219	COc1cc(F)ccc1CCN1c2nc(-c3ccncc3)cc(=O)n2CCC1(C)C
127	COc1ccc(C=CC(=O)c2c(OC)cc(OC)cc2OC(=O)c2ccco2)cc1
136 to 138	CCCCCC(=O)Nc1ccc2ccn(Cc3ccc(C#N)cc3OC)c2c1
206 to 207	O=C(c1cccc(-c2cc3ccccc3[nH]2)c1)c1cc2ccccc2[nH]1
188 to 190	CCS(=O)Cc1cccc(-c2nc(=O)c3ccccc3s2)n1 (configuration not stated)
129 to 130	CC(C)c1cccc(C(C)C)c1NC(=O)N(Cc1ccc(N(C)C)cc1)c1ccc(C(F)(F)F)cc1
238 to 240	NC(C(=O)O)c1ccc(C(=O)O)cc1-c1ccccc1 (configuration not stated)
61 to 63	COCCc1nc2c(N)nc3ccccc3c2n1CCCCNC(=O)c1nccc2ccccc12
246 to 248	Cc1cc(CNC(=O)c2nc3scc(COCc4ccc(C(=O)O)cc4)c3c(=O)[nH]2)ccc1F
192	CN1CCN(C(=O)OC2C3=C(SCCS3)C(=O)N2c2ccc3ccc(Cl)cc3n2)CC1 (configuration not stated)
55 to 56	O=C(Cc1cccnc1)c1ccc(Cl)cc1Cl

melting point [°C]	SMILES
74 to 75	C=CCSc1cn(C)cc(-c2cccc(C(F)(F)F)c2)c1=O
189 to 192	CCOC(=O)c1cn(-c2cnsn2)c2cc(F)c(F)cc2c1=O
190 to 191	Nc1ccccc1NS(=O)(=O)c1ccc([N+](=O)[O-])cc1
175 to 179	O=C1c2ccccc2C(=O)N1c1nc(Cl)nc(Cl)n1
207 to 209	O=C(Nc1ccc(-n2nc(C(F)(F)F)cc2C(F)(F)F)cc1)Nc1ccc(Cl)c([N+](=O)[O-])c1
157 to 158	CN(Sc1ccccc1[N+](=O)[O-])C(=O)Nc1ccc(Cl)cc1
156 to 157	O=C(NC(CO)c1ccc(-c2ccc(SC(F)F)cc2)cc1)c1c(F)cccc1F (configuration not stated)
99 to 100	O=C(CCCN1CCC(c2ccc(Cl)cc2)CC1)c1ccc2c(c1)CCN(Cc1ccccc1)CC2
225	N#CCCn1c2ccccc2c2cc([N+](=O)[O-])ccc21
90 to 97	CCCNC(=O)C(C)=Cc1ccc2c(c1)c(Cc1ccc(C(=O)O)cc1OC)cn2CCC(=O)N(C)C
98 to 100	O=C1Cc2cc(F)ccc2Sc2ccccc21
145 to 151	C=Cc1cc2cccnc2c(-c2cccc([N+](=O)[O-])c2)n1
41.1	CC(C)NCCCOc1ccc(N)cc1Cc1ccccc1
197	CN1CCC(OC2c3ccccc3CCn3cc(-c4ccc(N)cc4)nc32)CC1 (configuration not stated)
224	CC(=O)Nc1cc(Cl)c(Br)c(Cl)c1
139 to 141	CCc1csc(-n2cc(C)cc2-c2ccc(S(N)(=O)=O)cc2)c1
184 to 186	COC(=O)CCNC(=O)c1ccc2c(c1)nc(-c1ccc(C(=N)N)cc1)n2CCCCc1ccccc1
130 to 132	N#CCc1c[nH]c2ccc(OCc3ccccc3)c(Cl)c12
80.4 to 81.3	CCCCOc1cccc(C(=O)C=Cc2ccc(OC)cc2OC)c1
166 to 167	CN(C(CCN1C(=O)c2ccccc2C1=O)C(=O)O)S(=O)(=O)c1ccc(Oc2ccc(Cl)cc2)cc1 (configuration not stated)
286 to 287	COc1ccc2oc3ccc(I)cc3c2c1C(=O)Nc1cccnc1
149 to 150	COC(=O)c1ccc(=O)n(CCNC(=O)c2cc(Cl)ccc2OC)c1
200 to 201	Cn1cc(-c2ccc(C(=O)N3Cc4cccn4Cc4ccccc43)cc2)cn1
90	CCCCS(=O)(=O)N(Cc1ccc(-c2ccccc2-c2nnn[nH]2)cc1)[C@@H](C)C(=O)O
208 to 209	CN(C)c1cccc(-c2nc3ncccc3o2)c1
170 to 180	CC1(C)Oc2ccc(C#N)cc2[C@@H](NC(=O)Nc2cccc(-c3cnc[nH]3)c2)[C@@H]1O
46 to 50	Cc1ccc(-c2noc(CC(F)=C(F)F)n2)cc1
